Experiments:
Type in all cases: in vivo
[1] = tested on: larvae of the southern green stink bug (Nezara viridula); assay: Nezara viridula spray test; settings: 96 h, after 4 days, barley plants; for mortality at 100 g/ha: application rate 100 g/ha; for mortality at 500 g/ha: application rate 500 g/ha, read-out: activity (mortality)
Protocol: Nezara viridula—Spray Test
To produce a suitable preparation of active compound, 1 part by weight of active compound is mixed with the stated amount of solvent, and the concentrate is diluted with water, containing an emulsifier concentration of 1000 ppm, to the desired concentration. Further test concentrations are prepared by dilution with emulsifier containing water.
Barley plants (Hordeum vulgare) are sprayed with a test solution containing the desired concentration of the active ingredient and are infested with larvae of the southern green stink bug (Nezara viridula).
After 4 days mortality in % is determined. 100% means all the stink bugs have been killed; 0% means none of the stink bugs have been killed.

[2] = tested on: Rhipicephalus (Boophilus) microplus larvae (strain Parkhurst, resistant against synthetic pyrethroids); assay: Rhipicephalus (Boophilus) microplus in-vitro contact test, larval cattle tick; settings: after 48 hours, read-out: activity (efficacy: larvae dead or moribund); for pest or weed control at 1 µg/cm2, 100 g/ha: application rate 1 μg/cm^2 (=100 g/ha); for pest or weed control at 5 µg/cm2, 500 g/ha: application rate 5 μg/cm^2 (=500 g/ha)
Summary of the method: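 Pyrethroid-resistant Parkhurst larvae, 20–50 per tube, were kept 48 h at 27 °C and 85% relative humidity in glass tubes whose inner walls carried a dried acetone film of compound (900 ppm giving 5 μg/cm^2). Dead or moribund larvae, judged by loss of negative geotactic behavior, set percent efficacy.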

[3] = tested on: green peach aphid (Myzus persicae); assay: Myzus persicae oral test; settings: 120 h, read-out: activity (mortality)
Summary of the method: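 Five-day oral feeding assay measuring percent mortality of a mixed aphid population that draws compound-containing sugared IPL41 medium through sealing parafilm; the test preparation derives from 1 part compound per 100 parts acetone, diluted with water.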

[4] = tested on: adult cat fleas (Ctenocephalides felis); assay: Ctenocephalides felis in-vitro contact test, adult cat flea; settings: application rate 5 μg/cm^2 (=500 g/ha), after 48 hours, read-out: activity (efficacy: fleas dead or moribund)
Protocol: Ctenocephalides felis—In-Vitro Contact Tests Adult Cat Flea
(§1) 9 mg compound is solved in 1 mL acetone and diluted with acetone to the desired concentration. 250 μL of the test solution is filled in 25 mL glass test tubes and homogeneously distributed on the inner walls by rotation and tilting on a shaking device (2 h at 30 rpm). With a compound concentration of 900 ppm, an inner surface of 44.7 cm^2 and a homogeneous distribution, a dose of 5 μg/cm^2 is achieved.
After the solvent has evaporated, each test tube is filled with 5-10 adult cat fleas (Ctenocephalides felis), closed with a perforated lid and incubated in a lying position at room temperature and relative humidity. After 48 hours efficacy is determined. The fleas are patted on the ground of the tubes and are incubated on a heating plate at 45-50° C. for at most 5 minutes. Immotile or uncoordinated moving fleas, which are not able to escape the heat by climbing upwards, are marked as dead or moribund.
An efficacy of 100% means all fleas are dead or moribund; 0% means no fleas are dead or moribund.

[5] = tested on: adult brown dog ticks (Rhipicephalus sanguineus); assay: Rhipicephalus sanguineus in-vitro contact test, adult brown dog ticks; settings: application rate 5 μg/cm^2 (=500 g/ha), after 48 hours, read-out: activity (efficacy: ticks dead or moribund)
Protocol: Rhipicephalus sanguineus—In-Vitro Contact Tests with Adult Brown Dog Ticks
as §1
After the solvent has evaporated, each test tube is filled with 5-10 adult brown dog ticks (Rhipicephalus sanguineus), closed with a perforated lid and incubated in a lying position at room temperature and relative humidity. After 48 hours efficacy is determined. The ticks are patted on the ground of the tubes and are incubated on a heating plate at 45-50° C. for at most 5 minutes. Immotile or uncoordinated moving ticks, which are not able to escape the heat by climbing upwards, are marked as dead or moribund.
An efficacy of 100% means all ticks are dead or moribund; 0% means no ticks are dead or moribund.

[6] = tested on: larvae of the banded cucumber beetle (Diabrotica balteata); assay: Diabrotica balteata spray test; settings: 168 h, application rate 100 g/ha (=32 μg/well), after 7 days, wheat seeds, read-out: activity (efficacy: seedlings grown)
Summary of the method: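 Efficacy (%) read 7 days after infesting treated seedlings with 10-20 banded cucumber beetle larvae, 100% meaning growth as in uninfected untreated control and 0% no growth. Test solutions in water containing 1000 ppm emulsifier were sprayed onto wheat seeds germinated for 1 day on agar.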

[7] = tested on: fall armyworm larvae (Spodoptera frugiperda); assay: Spodoptera frugiperda spray test; settings: 168 h, application rate 100 g/ha, after 7 days, maize leaf sections
Summary of the method: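 Seven-day percent mortality of larvae feeding on Zea mays leaf sections sprayed with test compound. Dilutions were made in water holding 1000 ppm emulsifier.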

[8] = tested on: adult mosquitoes Aedes aegypti strain MONHEIM; assay: Aedes aegypti test (AEDSAE surface treatment & contact assay); settings: surface concentration 20 mg/m^2, exposure 30 minutes, 24 hours after contact, read-out: efficacy (mortality)
Protocol: Aedes aegypti Test (AEDSAE Surface Treatment & Contact Assay)
Solvent: Aceton+2000 ppm rapeseed oil methyl ester (RME)
In order to produce a sufficient, active ingredient containing solution it is necessary to solve the test compound in the solvent-mix (acetone at 2 mg/ml/RME 2000 ppm). This solution is pipetted onto a glazed tile and after evaporation of the acetone, adult mosquitoes of the species Aedes aegypti strain MONHEIM are placed onto the dried surface. The exposure time is 30 minutes.
Mortality in percent (%) is determined 24 hours after contact of the insects to the treated surface. 100% mortality means that all tested insects are dead, whereas 0% means that no insect died.

[9] = tested on: green peach aphid (Myzus persicae); assay: Myzus persicae spray test; settings: foliar, 120 h, after 5 days, Chinese cabbage leaf disks; for mortality at 100 g/ha: application rate 100 g/ha, read-out: activity (mortality); for mortality at 500 g/ha: application rate 500 g/ha
Protocol: Myzus persicae—Spray Test
To produce a suitable preparation of active compound, 1 part by weight of active compound is mixed with the stated amount of solvents and is diluted with water, containing an emulsifier concentration of 1000 ppm, to the desired concentration. Further test concentrations are prepared by dilution with emulsifier containing water.
Chinese cabbage (Brassica pekinensis) leaf disks infected with all instars of the green peach aphid (Myzus persicae), are sprayed with a preparation of the active ingredient of the desired concentration.
After 5 days mortality in % is determined. 100% means all aphids have been killed and 0% means none of the aphids have been killed.

[10] = tested on: adult engorged female ticks (Rhipicephalus microplus); assay: Rhipicephalus (Boophilus) microplus injection test; settings: 168 h, application rate 4 μg/tick, egg deposition after 7 days, read-out: activity (efficacy: infertile eggs)
Protocol: Rhipicephalus (Boophilus) microplus—Injection Test
Solvent: dimethyl sulfoxide
To produce a suitable preparation of active compound, 10 mg of active compound are dissolved in 0.5 mL solvent, and the concentrate is diluted with solvent to the desired concentration.
Five adult engorged female ticks (Rhipicephalus microplus) are injected with 1 μL compound solution into the abdomen. The ticks are transferred into replica plates and incubated in a climate chamber.
After 7 days egg deposition of fertile eggs is monitored. Eggs where fertility is not visible are stored in a climate chamber till hatching after about 42 days. An efficacy of 100% means all eggs are infertile; 0% means all eggs are fertile.

SMILES	mortality at 100 g/ha [1]	pest or weed control at 1 µg/cm2, 100 g/ha [2]	pest or weed control at 5 µg/cm2, 500 g/ha [2]	mortality at 4 ppm [3]	pest or weed control at 5 µg/cm2 [4]	pest or weed control at 5 µg/cm2, 500 g/ha [5]	pest or weed control at 32 µg/disc, 100 g/ha [6]	mortality at 100 g/ha [7]	mortality at 20 mg/m2 [8]	mortality at 100 g/ha [9]	mortality at 500 g/ha [9]	mortality at 500 g/ha [1]	pest or weed control at 0.004 mg [10]
C[C@H](NC(=O)c1cc(C(F)(F)F)cc(C(F)(F)F)c1)c1ncnn1-c1ccc(C(=O)N2CCOCC2c2ncno2)cn1 (stereo partly shown) [Example I-98]	90%	100%	100%	100%	90%	100%	100%	–	–	–	–	–	–
Cc1nc([C@H](C)NC(=O)c2cc(C(F)(F)F)cc(C(F)(F)F)c2)n(-c2ccc(C(=O)N3CCOC[C@@H]3C)cn2)n1 [Example I-68]	–	100%	100%	–	100%	–	100%	100%	80 to 100%	–	–	–	–
CON(C)C(=O)c1ccc(-n2ncnc2[C@H](C)NC(=O)c2cc(C(F)(F)F)cc(C(F)(F)F)c2)nc1 [Example I-48]	–	100%	100%	100%	–	–	100%	100%	80 to 100%	–	–	–	–
C[C@H](NC(=O)c1cc(C(F)(F)F)cc(C(F)(F)F)c1)c1ncnn1-c1ccc(C(=O)NC2CS(=O)(=O)C2)cn1 [Example I-63]	–	90%	90%	100%	100%	–	100%	–	80 to 100%	90%	90%	–	–
C[C@H](NC(=O)c1cc(C(F)(F)F)cc(C(F)(F)F)c1)c1ncnn1-c1ccc(C(=O)NC2CCOC2)cn1 (stereo partly shown) [Example I-61]	–	90%	90%	100%	–	–	–	100%	80 to 100%	–	90%	100%	–
CON(C)C(=O)c1ccc(-n2nc(C)nc2[C@H](C)NC(=O)c2cc(C(F)(F)F)cc(C(F)(F)F)c2)nc1 [Example I-49]	–	100%	100%	100%	–	–	100%	100%	80 to 100%	90%	–	–	–
C[C@H](NC(=O)c1cc(C(F)(F)F)cc(C(F)(F)F)c1)c1ncnn1-c1ccc(C(=O)N2CC3(COC3)C2)cn1 [Example I-12]	–	100%	100%	100%	90%	100%	–	100%	80 to 100%	–	–	–	100%
C[C@H](NC(=O)c1cc(C(F)(F)F)cc(C(F)(F)F)c1)c1ncnn1-c1ccc(C(=O)N2CCOC(C)(C)C2)cn1 [Example I-14, N-[(1S)-1-(1-{5-[(2,2-dimethylmorpholin-4-yl)carbonyl]pyridin-2-yl}-1H-1,2,4-triazol-5-yl)ethyl]-3,5-bis(trifluoromethyl)benzamide]	100%	100%	100%	100%	100%	100%	100%	83%	–	90%	–	–	100%
C[C@@H]1CN(C(=O)c2cnc(-n3ncnc3[C@H](C)NC(=O)c3cc(C(F)(F)F)cc(C(F)(F)F)c3)cn2)C[C@H](C)O1 [Example I-143]	–	–	–	–	–	–	100%	100%	–	90%	–	100%	–
C[C@@H]1CN(C(=O)c2cnc(-n3ncnc3[C@H](C)NC(=O)c3cc(OC(F)(F)F)cc(C4CC4)c3)cn2)C[C@H](C)O1 [Example I-141]	90%	–	–	–	–	–	–	100%	–	90%	–	100%	–

From patent publication US20230058623A1, “NOVEL HETEROARYL-TRIAZOLE COMPOUNDS AS PESTICIDES” (Bayer Aktiengesellschaft, priority 2019, published 2023)
